For 19 molecules, IC50 results are on record in patent US11306078B2, “Piperidine CXCR7 receptor modulators” (IDORSIA PHARMACEUTICALS LTD., priority 2016, dated 2022).

Some results are limits rather than exact numbers.

The target of the first experiment is human chemokine receptor CXCR7 (Homo sapiens (Human), UniProt P25106). As to the kind of experiment: Tango CXCR7-bla U2OS beta-arrestin recruitment assay (beta-lactamase reporter, FRET), antagonism of CXCL12/SDF1-α.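 Further: compounds preincubated 15 min before CXCL12 addition, then 22 h at 37 °C, FRET emission ratio read with CCF4-AM substrate after 2 h.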 Type of experiment: cell-based. Conditions: antagonistic effect on CXCR7; Tango CXCR7-bla U2OS cells, CXCL12/SDF1-α at its EC80. (Activated receptors often draw arrestin, which recruitment assays turn into a signal.)
Sequence of human chemokine receptor CXCR7 (P25106 whole entry): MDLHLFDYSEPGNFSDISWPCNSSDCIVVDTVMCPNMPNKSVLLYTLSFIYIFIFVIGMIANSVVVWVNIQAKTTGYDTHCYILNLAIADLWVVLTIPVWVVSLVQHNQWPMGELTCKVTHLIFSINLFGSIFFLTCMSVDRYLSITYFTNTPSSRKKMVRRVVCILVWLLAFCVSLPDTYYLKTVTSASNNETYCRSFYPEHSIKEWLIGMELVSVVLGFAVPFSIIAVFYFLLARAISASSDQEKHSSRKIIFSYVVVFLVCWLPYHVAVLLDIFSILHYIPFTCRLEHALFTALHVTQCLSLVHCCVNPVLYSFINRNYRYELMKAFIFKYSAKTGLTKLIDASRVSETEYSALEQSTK
A word on the IC50: it is the concentration at which inhibition is half-maximal. High values mean weaker potency, low ones greater potency. `O=C(N[C@H]1CCN(CC2CC2)C[C@@H]1C(=O)NC1(c2ccccn2)CC1)c1nnc(-c2ccc(F)cc2F)o1` (single isomer, unassigned) [Example 3.016a, (3S,4S)-1-Cyclopropylmethyl-4-{[5-(2,4-difluoro-phenyl)-[1,3,4]oxadiazole-2-carbonyl]-amino}-piperidine-3-carboxylic acid (1-pyridin-2-yl-cyclopropyl)-amide or (3R,4R)-1-Cyclopropylmethyl-4-{[5-(2,4-difluoro-phenyl)-[1,3,4]oxadiazole-2-carbonyl]-amino}-piperidine-3-carboxylic acid (1-pyridin-2-yl-cyclopropyl)-amide] showed an IC50 of 90 nM.

On to `C#CC(C)NC(=O)[C@H]1CN(CC2CC2)CC[C@@H]1NC(=O)c1cc(-c2ccc(F)cc2F)on1` (stereo partly shown) [Example 4.048], for which the IC50 came to 247 nM.

Take `C[C@@H](NC(=O)[C@@H]1CN(C2CCCC2)CC[C@H]1NC(=O)c1cc(-c2c(F)cc(F)cc2F)on1)C1CCC1` (single isomer, unassigned) [Example 1.138a, (3R*,4R*)-1-Cyclopentyl-4-{[5-(2,4,6-trifluoro-phenyl)-isoxazole-3-carbonyl]-amino}-piperidine-3-carboxylic acid ((R)-1-cyclobutyl-ethyl)-amide]: inhibition was half-maximal at 437 nM (IC50).

`Cc1nc(C(C)(C)NC(=O)[C@H]2CN(C3CCCC3)CC[C@@H]2NC(=O)c2cc(-c3ccc(F)cc3F)on2)no1` [Example 4.035] returned an IC50 of 56 nM. Compared with the last molecule, the IC50 is about 7.8-fold lower.

For the molecule `O=C(N[C@H]1CCN(CC2CC2)C[C@@H]1C(=O)NC1(c2ncccn2)CC1)c1cn(-c2ccc(F)cc2F)nn1` [Example 7.004, (3S,4S)-1-Cyclopropylmethyl-4-{[1-(2,4-difluoro-phenyl)-1H-[1,2,3]triazole-4-carbonyl]-amino}-piperidine-3-carboxylic acid (1-pyrimidin-2-yl-cyclopropyl)-amide], half-maximal inhibition (IC50) required 64 nM.

In the case of `CC(C)(C)NC(=O)[C@@H]1CN(C2CCCCC2)CC[C@H]1NC(=O)c1cc(-c2ccc(F)cc2F)on1` [Example 4.015], the IC50 is 783 nM.

Regarding `CC(NC(=O)[C@@H]1CN(C2CCCCC2)CC[C@H]1NC(=O)c1cc(-c2ccc(F)cc2F)on1)c1ccncn1` (relative stereo) [Example 1.063, (3R*,4R*)-1-Cyclohexyl-4-{[5-(2,4-difluoro-phenyl)-isoxazole-3-carbonyl]-amino}-piperidine-3-carboxylic acid ((1RS)-1-(pyrimidin-4-yl)-ethyl)-amide], the midpoint of inhibition, the IC50, lay at 107 nM.

Regarding `O=C(N[C@@H]1CCN(CC2CC2)C[C@H]1C(=O)NC1(c2ncccn2)CC1)c1cc(-c2ccc(C(F)(F)F)cc2)on1` (single isomer, unassigned) [Example 1.192b, (3R*,4R*)-1-Cyclopropylmethyl-4-{[5-(4-trifluoromethyl-phenyl)-isoxazole-3-carbonyl]-amino}-piperidine-3-carboxylic acid (1-pyrimidin-2-yl-cyclopropyl)-amide], inhibition was half-maximal at 122 nM (IC50). The IC50 values of the last two molecules are within 1.5-fold of each other.

Regarding `Cc1cc(CNC(=O)[C@@H]2CN(C3CCCCC3)CC[C@H]2NC(=O)c2cc(-c3ccc(F)cc3F)on2)no1` (racemic) [Example 1.022, rac-(3R*,4R*)-1-Cyclohexyl-4-{[5-(2,4-difluoro-phenyl)-isoxazole-3-carbonyl]-amino}-piperidine-3-carboxylic acid (5-methyl-isoxazol-3-ylmethyl)-amide], inhibition was half-maximal at 198 nM (IC50). Against the preceding molecule, the IC50 is about 1.6-fold higher.

Molecule `CN(C)C(=O)[C@@H]1CN(C2CCCC2)CC[C@H]1NC(=O)c1cn(-c2ccc(F)cc2F)nn1` (racemic) [Example 1.096, rac-(3R*,4R*)-1-Cyclopentyl-4-{[1-(2,4-difluoro-phenyl)-1H-[1,2,3]triazole-4-carbonyl]-amino}-piperidine-3-carboxylic acid dimethylamide] registered an IC50 of 667 nM.

The molecule `COCCNC(=O)[C@@H]1CN(C2CCCCC2)CC[C@H]1NC(=O)c1cc(-c2ccc(F)cc2F)on1` (racemic) [Example 1.006, rac-(3R*,4R*)-1-Cyclohexyl-4-{[5-(2,4-difluoro-phenyl)-isoxazole-3-carbonyl]-amino}-piperidine-3-carboxylic acid (2-methoxy-ethyl)-amide] registered an IC50 of 414 nM.

Molecule `O=C(N[C@H]1CCN(CC2CC2)C[C@@H]1C(=O)NC1(c2ncccn2)CC1)c1cc(-c2ccc(Cl)cc2Cl)on1` (single isomer, unassigned) [Example 1.189a, (3S,4S)-1-Cyclopropylmethyl-4-{[5-(2,4-dichloro-phenyl)-isoxazole-3-carbonyl]-amino}-piperidine-3-carboxylic acid (1-pyrimidin-2-yl-cyclopropyl)-amide or (3R,4R)-1-Cyclopropylmethyl-4-{[5-(2,4-dichloro-phenyl)-isoxazole-3-carbonyl]-amino}-piperidine-3-carboxylic acid (1-pyrimidin-2-yl-cyclopropyl)-amide] returned an IC50 of 15 nM.

Turning to `O=C(N[C@H]1CCN(CC2CC2)C[C@@H]1C(=O)NC1(c2ncccn2)CC1)c1cc(-c2ccc(F)cc2F)ns1` [Example 7.014, (3S,4S)-1-Cyclopropylmethyl-4-{[3-(2,4-difluoro-phenyl)-isothiazole-5-carbonyl]-amino}-piperidine-3-carboxylic acid (1-pyrimidin-2-yl-cyclopropyl)-amide], half-maximal inhibition (IC50) was put at 629 nM.

Turning to `CN(C)C(=O)[C@@H]1CN(CCC2CC2)CC[C@H]1NC(=O)c1cc(-c2ccc(F)cc2F)on1` [Example 2.039], the IC50 stood at 83 nM.

With `CC(NC(=O)[C@@H]1CN(C(C)C)CC[C@H]1NC(=O)c1cc(-c2ccc(F)cc2F)on1)c1ccccn1` (stereo partly shown) [Example 2.007], the IC50 was determined as 88 nM.

`C[C@@H](NC(=O)[C@H]1CN(C2CCCC2)CC[C@@H]1NC(=O)c1cn(-c2ccc(F)cc2F)nn1)c1ccccn1` (single isomer, unassigned) [Example 1.118a, (3S,4S)-1-Cyclopentyl-4-{[1-(2,4-difluoro-phenyl)-1H-[1,2,3]triazole-4-carbonyl]-amino}-piperidine-3-carboxylic acid ((R)-1-pyridin-2-yl-ethyl)-amide or (3R,4R)-1-Cyclopentyl-4-{[1-(2,4-difluoro-phenyl)-1H-[1,2,3]triazole-4-carbonyl]-amino}-piperidine-3-carboxylic acid ((R)-1-pyridin-2-yl-ethyl)-amide] returned an IC50 of 75 nM. The IC50 values of the last two molecules are within 1.5-fold of each other.

For the molecule `CN(C)C(=O)[C@@H]1CN(C2CCC(F)(F)CC2)CC[C@H]1NC(=O)c1cc(-c2ccc(F)cc2F)on1` [Example 2.027], half-maximal inhibition (IC50) was put at 745 nM.

In the case of `O=C(N[C@H]1CCN(CC2CC2)C[C@@H]1C(=O)N1CC[C@@H]1c1ccccc1)c1cc(-c2ccc(F)cc2F)on1` [Example 4.067a], 20 nM corresponded to half-maximal inhibition (IC50). Against the preceding molecule, the IC50 is about 37-fold lower.

Still in this experiment, the particulars now being: antagonistic effect on CXCR7; Tango CXCR7-bla U2OS cells; CXCL12/SDF1-α at its EC80; geometric mean.
In turn, `O=C(N[C@@H]1CCN(CC2CC2)C[C@H]1C(=O)NC1(c2ncccn2)CC1)c1cc(C2CC2)on1` (single isomer, unassigned) [Reference Compound 1a, (3R,4R)-4-[(5-Cyclopropyl-isoxazole-3-carbonyl)-amino]-1-cyclopropylmethyl-piperidine-3-carboxylic acid (1-pyrimidin-2-yl-cyclopropyl)-amide or (3S,4S)-4-[(5-cyclopropyl-isoxazole-3-carbonyl)-amino]-1-cyclopropylmethyl-piperidine-3-carboxylic Acid (1-pyrimidin-2-yl-cyclopropyl)-amide, reference compound] displayed an IC50 above 10000 nM.
